Source: patent US12371428B2 (Exelixis, Inc., priority 2019, dated 2025)

How the values were obtained:
[1] = target: Human MET (residues 956-1390) (Homo sapiens (Human), UniProt P08581); assay: Human Met kinase assay, HTRF KinEase (Example D-2); assay type: biochemical; details: protocol of Example D-2 (other compounds); read-out: c-Met IC50
Summary of the method: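 IC50 values come from a 4-parameter logistic fit of the […] fluorescence ratio, set between DMSO (100%) and reference compound at 1 μM (0%). Reactions held MET 956-1390 at 0.1 ng/well, ATP at Km, biotinylated peptide, 5 mM MgCl2, 1 mM MnCl2, 1 mM DTT and 3% DMSO, and ran 40 min at room temperature before streptavidin-XL665/Eu-antibody detection.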

[2] = target: KDR (phospho-KDR, VEGF165-stimulated HUVEC cells) (Homo sapiens (Human), UniProt P35968); assay: KDR autophosphorylation ELISA in HUVEC cells (Example G); assay type: cell-based; details: cellular activity; KDR autophosphorylation ELISA in HUVEC cells
Summary of the method: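 First, endothelial cells were cultured a day, then kept without serum for another day. Next came 1 h with serially diluted compound, a brief 5 min VEGF165 stimulus (100 ng/mL), rapid lysis, and ELISA detection of receptor phosphorylation relative to stimulated and non-stimulated controls.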

Sequence of Human MET (residues 956-1390) (P08581 956-1390): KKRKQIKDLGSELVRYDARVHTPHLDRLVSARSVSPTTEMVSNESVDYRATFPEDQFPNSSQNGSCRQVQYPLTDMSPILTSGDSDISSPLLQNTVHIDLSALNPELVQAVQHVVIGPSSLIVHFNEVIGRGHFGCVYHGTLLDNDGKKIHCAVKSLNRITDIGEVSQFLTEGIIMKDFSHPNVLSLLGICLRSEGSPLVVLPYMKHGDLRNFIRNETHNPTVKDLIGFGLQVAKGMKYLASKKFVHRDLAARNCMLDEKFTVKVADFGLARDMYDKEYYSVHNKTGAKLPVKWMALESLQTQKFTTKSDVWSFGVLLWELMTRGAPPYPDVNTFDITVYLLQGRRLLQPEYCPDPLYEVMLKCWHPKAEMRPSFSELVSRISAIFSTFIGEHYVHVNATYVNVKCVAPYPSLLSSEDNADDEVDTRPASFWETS
Sequence of KDR (phospho-KDR, VEGF165-stimulated HUVEC cells) (P35968 20-1356): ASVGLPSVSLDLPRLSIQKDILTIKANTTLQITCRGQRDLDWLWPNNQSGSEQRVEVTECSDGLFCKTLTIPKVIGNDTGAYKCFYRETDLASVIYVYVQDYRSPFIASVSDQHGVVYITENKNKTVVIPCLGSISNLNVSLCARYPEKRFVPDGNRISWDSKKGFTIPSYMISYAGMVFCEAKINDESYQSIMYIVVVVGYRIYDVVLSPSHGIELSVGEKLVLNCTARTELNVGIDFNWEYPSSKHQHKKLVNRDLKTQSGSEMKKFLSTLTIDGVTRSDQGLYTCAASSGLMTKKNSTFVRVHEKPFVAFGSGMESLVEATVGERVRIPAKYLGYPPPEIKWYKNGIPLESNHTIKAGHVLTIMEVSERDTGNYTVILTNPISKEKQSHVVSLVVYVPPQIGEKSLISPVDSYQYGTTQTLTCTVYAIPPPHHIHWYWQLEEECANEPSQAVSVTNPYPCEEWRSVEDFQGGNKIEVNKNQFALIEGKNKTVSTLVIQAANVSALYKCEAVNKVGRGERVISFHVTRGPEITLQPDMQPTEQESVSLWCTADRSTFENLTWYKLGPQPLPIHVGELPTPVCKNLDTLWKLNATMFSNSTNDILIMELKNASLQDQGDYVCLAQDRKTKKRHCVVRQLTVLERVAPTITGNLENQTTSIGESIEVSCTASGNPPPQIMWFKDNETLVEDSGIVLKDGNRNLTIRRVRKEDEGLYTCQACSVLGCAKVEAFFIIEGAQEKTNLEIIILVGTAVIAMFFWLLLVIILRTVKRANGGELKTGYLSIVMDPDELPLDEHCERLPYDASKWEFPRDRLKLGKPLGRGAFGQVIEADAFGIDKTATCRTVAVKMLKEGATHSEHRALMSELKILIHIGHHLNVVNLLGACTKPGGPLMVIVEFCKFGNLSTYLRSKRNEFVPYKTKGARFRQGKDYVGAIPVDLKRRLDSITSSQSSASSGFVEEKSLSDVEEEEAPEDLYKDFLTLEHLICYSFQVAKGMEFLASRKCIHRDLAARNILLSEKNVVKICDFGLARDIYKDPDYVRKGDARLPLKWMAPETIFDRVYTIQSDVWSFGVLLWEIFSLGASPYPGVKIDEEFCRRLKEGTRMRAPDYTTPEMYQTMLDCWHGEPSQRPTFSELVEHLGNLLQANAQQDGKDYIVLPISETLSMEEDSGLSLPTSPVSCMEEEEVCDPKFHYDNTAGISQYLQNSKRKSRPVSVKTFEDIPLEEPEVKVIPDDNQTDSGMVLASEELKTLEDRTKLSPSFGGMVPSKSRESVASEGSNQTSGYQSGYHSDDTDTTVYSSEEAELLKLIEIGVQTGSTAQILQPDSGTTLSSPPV

| IC50 [1] [nM] | IC50 [2] [nM] | SMILES |
| --- | --- | --- |
| < 100 | < 100 | COCCOc1ccc2nccc(Oc3ccc(NC(=O)c4ccc(C)n(-c5ccc(F)cc5)c4=O)cc3F)c2n1 [Compound 350, N-[3-fluoro-4-[[6-(2-methoxyethoxy)-1,5-naphthyridin-4-yl]oxy]phenyl]-1-(4-fluorophenyl)-6-methyl-2-oxopyridine-3-carboxamide] |
| < 100 | < 100 | Cc1nc(C)c(-c2ccc(F)cc2)c(O)c1C(=O)Nc1ccc(Oc2ccnc3ccc(OCCN(C)C)nc23)c(F)c1 [Compound 354, N-[4-[[6-[2-(dimethylamino)ethoxy]-1,5-naphthyridin-4-yl]oxy]-3-fluorophenyl]-5-(4-fluorophenyl)-4-hydroxy-2,6-dimethylpyridine-3-carboxamide] |
| 100 to 300 | < 100 | COc1cnc2c(Oc3ccc(NC(=O)c4c(C)ccn(-c5ccc(F)cc5)c4=O)cc3)ccnc2c1 [Compound 300, 1-(4-Fluorophenyl)-N-[4-[(7-methoxy-1,5-naphthyridin-4-yl)oxy]phenyl]-4-methyl-2-oxopyridine-3-carboxamide] |
| 100 to 300 | < 100 | COc1cc2nccc(Oc3ccc(NC(=O)c4c(C)cc(C)n(-c5ccc(F)cc5C)c4=O)cc3F)c2nc1OC [Compound 298, N-[4-[(6,7-Dimethoxy-1,5-naphthyridin-4-yl)oxy]-3-fluorophenyl]-1-(4-fluoro-2-methylphenyl)-4,6-dimethyl-2-oxopyridine-3-carboxamide] |
| < 100 | < 100 | COc1ccc2nccc(Oc3ccc(NC(=O)c4ccc(C)n(-c5ccc(F)cc5)c4=O)cc3)c2n1 [Compound 343, 1-(4-fluorophenyl)-N-[4-[(6-methoxy-1,5-naphthyridin-4-yl)oxy]phenyl]-6-methyl-2-oxopyridine-3-carboxamide] |
| < 100 | > 300 | COc1cnc2c(Oc3ccc(NC(=O)c4nccn(-c5ccc(F)cc5)c4=O)cc3F)ccnc2c1 [Compound 381, N-[3-fluoro-4-[(7-methoxy-1,5-naphthyridin-4-yl)oxy]phenyl]-4-(4-fluorophenyl)-3-oxopyrazine-2-carboxamide] |
| < 100 | > 300 | COc1cc2nccc(Oc3cc(F)c(NC(=O)c4cn(C)c(C)c(-c5ccc(F)cc5)c4=O)cc3F)c2nc1OC [Compound 391, N-[4-[(6,7-dimethoxy-1,5-naphthyridin-4-yl)oxy]-2,5-difluorophenyl]-5-(4-fluorophenyl)-1,6-dimethyl-4-oxopyridine-3-carboxamide] |
| < 100 | > 300 | COc1ccc2nccc(Oc3ccc(NC(=O)c4nccn(-c5ccc(F)cc5)c4=O)cc3F)c2n1 [Compound 380, N-[3-fluoro-4-[(6-methoxy-1,5-naphthyridin-4-yl)oxy]phenyl]-4-(4-fluorophenyl)-3-oxopyrazine-2-carboxamide] |
| < 100 | > 300 | COc1ccc2nccc(Oc3ccc(NC(=O)c4ncc(C)n(-c5ccc(F)cc5)c4=O)cc3)c2n1 [Compound 378, 4-(4-fluorophenyl)-N-[4-[(6-methoxy-1,5-naphthyridin-4-yl)oxy]phenyl]-5-methyl-3-oxopyrazine-2-carboxamide] |
| 100 to 300 | 100 to 300 | C=C(C)c1cc(C(=O)Nc2ccc(Oc3ccnc4cc(OC)c(OC)nc34)c(F)c2)c(=O)n(-c2ccc(F)cc2)c1C [Compound 367, N-[4-[(6,7-dimethoxy-1,5-naphthyridin-4-yl)oxy]-3-fluorophenyl]-1-(4-fluorophenyl)-6-methyl-2-oxo-5-prop-1-en-2-ylpyridine-3-carboxamide] |
| < 100 | < 100 | COc1cc2nccc(Oc3ccc(NC(=O)c4cn(C)c(C)c(-c5ccc(F)cc5)c4=O)cc3Cl)c2nc1OC [Compound 388, N-[3-chloro-4-[(6,7-dimethoxy-1,5-naphthyridin-4-yl)oxy]phenyl]-5-(4-fluorophenyl)-1,6-dimethyl-4-oxopyridine-3-carboxamide] |
| < 100 | < 100 | COc1cc2nccc(Oc3ccc(NC(=O)c4c(C)ccn(-c5ccc(F)cc5)c4=O)cc3)c2nc1OC [Compound 299, N-[4-[(6,7-Dimethoxy-1,5-naphthyridin-4-yl)oxy]phenyl]-1-(4-fluorophenyl)-4-methyl-2-oxopyridine-3-carboxamide] |

Second part, the molecule before the results:

| SMILES | IC50 [1] [nM] | IC50 [2] [nM] |
| --- | --- | --- |
| COc1cnc2c(Oc3ccc(NC(=O)c4c(C)cc(C)n(-c5ccc(F)cc5)c4=O)cc3F)ccnc2c1 [Compound 280, N-[3-Fluoro-4-[(7-methoxy-1,5-naphthyridin-4-yl)oxy]phenyl]-1-(4-fluorophenyl)-4,6-dimethyl-2-oxopyridine-3-carboxamide] | < 100 | < 100 |
| COc1ccc2nccc(Oc3ccc(NC(=O)c4c(C)ccn(-c5ccc(F)cc5)c4=O)cc3F)c2n1 [Compound 287, N-[3-Fluoro-4-[(6-methoxy-1,5-naphthyridin-4-yl)oxy]phenyl]-1-(4-fluorophenyl)-4-methyl-2-oxopyridine-3-carboxamide] | 100 to 300 | < 100 |
| COc1ccc2nccc(Oc3ccc(NC(=O)c4cccn(-c5ccc(F)cc5)c4=O)cc3F)c2n1 [Compound 292, N-[3-Fluoro-4-[(6-methoxy-1,5-naphthyridin-4-yl)oxy]phenyl]-1-(4-fluorophenyl)-2-oxopyridine-3-carboxamide] | < 100 | < 100 |
| COc1cc2nccc(Oc3ccc(NC(=O)c4cn(C)cc(-c5c(C)cc(F)cc5C)c4=O)cc3F)c2nc1OC [Compound 268, N-[4-[(6,7-Dimethoxy-1,5-naphthyridin-4-yl)oxy]-3-fluorophenyl]-5-(4-fluoro-2,6-dimethylphenyl)-1-methyl-4-oxopyridine-3-carboxamide] | < 100 | > 300 |
| COc1cnc2c(Oc3ccc(NC(=O)c4cccn(-c5ccc(F)cc5)c4=O)cc3F)ccnc2c1 [Compound 291, N-[3-Fluoro-4-[(7-methoxy-1,5-naphthyridin-4-yl)oxy]phenyl]-1-(4-fluorophenyl)-2-oxopyridine-3-carboxamide] | < 100 | < 100 |
| COc1cnc2c(Oc3ccc(NC(=O)c4cnc(C)n(-c5ccc(F)cc5)c4=O)cc3)ccnc2c1 [Compound 266, 1-(4-Fluorophenyl)-N-[4-[(7-methoxy-1,5-naphthyridin-4-yl)oxy]phenyl]-2-methyl-6-oxopyrimidine-5-carboxamide] | < 100 | > 300 |
| COc1cnc2c(Oc3ccc(NC(=O)c4c(C)cc(C)n(-c5ccc(F)cc5)c4=O)cc3)ccnc2c1 [Compound 289, 1-(4-Fluorophenyl)-N-[4-[(7-methoxy-1,5-naphthyridin-4-yl)oxy]phenyl]-4,6-dimethyl-2-oxopyridine-3-carboxamide] | < 100 | < 100 |
| CCn1cc(C(=O)Nc2ccc(Oc3ccnc4cc(OC)cnc34)c(F)c2)c(=O)c(-c2ccc(F)cc2)c1CO [Compound 273, 1-Ethyl-N-[3-fluoro-4-[(7-methoxy-1,5-naphthyridin-4-yl)oxy]phenyl]-5-(4-fluorophenyl)-6-(hydroxymethyl)-4-oxopyridine-3-carboxamide] | < 100 | > 300 |
| Cc1ccc(C(=O)Nc2ccc(Oc3ccnc4cc(OCc5ccccc5)cnc34)c(F)c2)c(=O)n1-c1ccc(F)cc1 [Compound 275, 1-(4-Fluorophenyl)-N-[3-fluoro-4-[(7-phenylmethoxy-1,5-naphthyridin-4-yl)oxy]phenyl]-6-methyl-2-oxopyridine-3-carboxamide] | 100 to 300 | < 100 |
| COc1cnc2c(Oc3ccc(NC(=O)c4c(C)ccn(-c5ccc(F)cc5)c4=O)cc3F)ccnc2c1 [Compound 294, N-[3-Fluoro-4-[(7-methoxy-1,5-naphthyridin-4-yl)oxy]phenyl]-1-(4-fluorophenyl)-4-methyl-2-oxopyridine-3-carboxamide] | < 100 | < 100 |
| COc1ccc2nccc(Oc3ccc(NC(=O)c4ncc(C)n(-c5ccc(F)cc5)c4=O)cc3F)c2n1 [Compound 264, N-[3-Fluoro-4-[(6-methoxy-1,5-naphthyridin-4-yl)oxy]phenyl]-4-(4-fluorophenyl)-5-methyl-3-oxopyrazine-2-carboxamide] | < 100 | > 300 |
| COCc1c(-c2ccc(F)cc2)c(=O)c(C(=O)Nc2ccc(Oc3ccnc4cc(OC)cnc34)c(F)c2)cn1C [Compound 270, N-[3-Fluoro-4-[(7-methoxy-1,5-naphthyridin-4-yl)oxy]phenyl]-5-(4-fluorophenyl)-6-(methoxymethyl)-1-methyl-4-oxopyridine-3-carboxamide] | < 100 | > 300 |
| CCn1cc(C(=O)Nc2ccc(Oc3ccnc4cc(OC)cnc34)cc2)c(=O)c(-c2ccc(F)cc2)c1CO [Compound 274, 1-Ethyl-5-(4-fluorophenyl)-6-(hydroxymethyl)-N-[4-[(7-methoxy-1,5-naphthyridin-4-yl)oxy]phenyl]-4-oxopyridine-3-carboxamide] | < 100 | > 300 |
| COc1cc2nccc(Oc3ccc(NC(=O)c4c(C)cc(C)n(-c5ccc(F)cc5)c4=O)cc3)c2nc1OC [Compound 288, N-[4-[(6,7-Dimethoxy-1,5-naphthyridin-4-yl)oxy]phenyl]-1-(4-fluorophenyl)-4,6-dimethyl-2-oxopyridine-3-carboxamide] | < 100 | < 100 |
| Cc1ccc2nccc(Oc3ccc(NC(=O)c4c(C)cc(C)n(-c5ccc(F)cc5)c4=O)cc3F)c2n1 [Compound 297, N-[3-Fluoro-4-[(6-methyl-1,5-naphthyridin-4-yl)oxy]phenyl]-1-(4-fluorophenyl)-4,6-dimethyl-2-oxopyridine-3-carboxamide] | < 100 | < 100 |
